According to patent US20230060873A1, “COMPOUNDS AND METHODS FOR FORMING ION CHANNELS IN BIOLOGICAL MEMBRANES” (Washington University, priority 2021, published 2023):
Values after ≈ are worked out from the molar mass of the structure shown.

What was measured:
[1] = system: B. subtilis cells; assay: Lactate dehydrogenase release (resofurin fluorescence), MAcBCE/MAkBCE and controls; type: cell-based, Bacillus subtilis; settings: 2 μM, 37° C, potassium lactate/NAD+ solution
Experimental: A 2 mL liquid culture of transformed B. subtilis cells was grown at 37° C. in LB media supplemented with […] kanamycin, until OD600=0.6. Cells were collected by centrifugation at 2000 rpm over 3 min. The bacterial pellet was washed twice in lactate/NAD^+ solution (95 mM potassium lactate, 10 mM nicotinamide adenine dinucleotide (NAD^+), 10 mM HEPES, pH adjusted to 7.4 with KOH). After the last centrifugation step, the bacteria were resuspended until OD600=1.0 in the lactate/NAD^+ solution, then diluted 100× in the same solution. The working fluorophore solution was a 1 mM of resazurin sodium salt (Alfa Cesar) in water. The experiment was started with 3 mL of lactate/NAD^+ solution in a quartz cuvette, then 3.1 μL of resazurin solution was added (timepoint t1, 50 sec) for a 1 μM final concentration, followed by the addition of 100 μL of the diluted B. subtilis suspension (timepoint t2, 100 sec). After 150 sec (timepoint t3, 250 sec), 10 μL of diaphorase (Worthinton Biochemical Corporation) 10 mg/mL solution was added. The final step involved the addition of 0.62 μL of a 10 mM stock solution of dialkylated diaza lariat ether (LEC10) in TFE (timepoint t4, 400 sec), for a final LEC10 concentration of 2 μM; or 3.1 μL of a 2 mM stock solution of valinomycin in DMSO, for a final valinomycin concentration of 2 μM; or 3.1 μL of a 20 mg/mL stock solution of lysozyme in lactate/NAD^+ solution, for a final lysozyme concentration of 20 μg/mL; or 3.1 μL of 10 mM stock solution of each MAcBCE or MAkBCE compounds in TFE, for final concentrations of 10 μM. Fluorescence intensity was recorded each second using a Horiba Fluoromax 4 spectrometer (λexcitation=550 nm; λemission=583 nm). […] To normalize, the fluorescence intensity was divided by the fluorescence level just before timepoint t4. […]
Experiments were repeated at least three times per condition. To normalize, the fluorescence intensity was divided by the fluorescence level just before timepoint t4.

[2] = system: Escherichia coli; assay: Toxicity (MIC) of dialkylated lariat ethers on E. coli; type: cell-based; settings: E. coli XL1 blue, 12 h, visual turbidity, read-out: minimum inhibitory concentration (MIC)
Experimental: The cyto-toxicity was determined by measuring the minimum inhibitory concentrations (MIC) for this series of dialkylated lariat ethers in the Gram-negative bacteria Escherichia coli, the Gram-positive bacteria Bacillus subtilis, and human embryonic kidney (HEK293T) cells.
On bacteria. XL1 blue strain Escherichia coli cells transformed with a pET28a plasmid (which contains a kanamycin resistance gene) were grown at 37° C. in 2 mL of LB medium (Miller's LB broth, Research Products International) supplemented with 50 μg/mL of kanamycin until the optical density (600 nm) reached 0.600. The starting density of bacteria in the remainder of the experiments was a 1/100 dilution of this bacterial density, which was split into 4 mL cultures. A series of 400, 100, 10 and 5 mM stock solutions of each dialkylated diaza(18-crown-6) compounds in trifluoroethanol (TFE) were diluted by adding to the 4 mL cultures until final concentrations of 400, 200, 100, 50, 20, 15, 10, 5, 4, 3, 2 and 1 μM were reached, with the final TFE concentration never >0.1% v/v. Negative controls in the presence of TFE 0.1% v/v or the absence of any treatment were done for each batch. The cultures were incubated at 37° C. with agitation for 12 h. Bacillus subtilis (168 WT) toxicity tests were carried out using an identical protocol, except for the addition of the antibiotic. […]

CCCCCCCCCCN1CCOCCOCCN(CCCCCCCCCC)CCOCCOCC1 [LEC10, Didecyl diaza(18-crown-6)]
resofurin fluorescence (LDH release) [1]: increase in the resofurin fluorescence levels
MIC [2]: 10 µM (≈ 5.43 µg/mL)
